From US20220315574A1, “Beta-Arrestin-Modulating Compounds and Methods of Using Same” (Duke University, priority 2019, published 2022)
Where a name gives a salt, the structure may show the parent alone.

Tests used:
wild-type mouse T cells = assay type: cell-based; details: total T cells and CD4/CD8 subpopulations
Experimental: Chemotaxis assays were conducted similarly to those previously described Smith, J. S. et al. C-X-C Motif Chemokine Receptor 3 Splice Variants Differentially Activate Beta-Arrestins to Regulate Downstream Signaling Pathways. Mol Pharmacol 92, 136-150, doi:10.1124/mol.117.108522 (2017)). Briefly, mouse leukocytes, obtained by passing cells isolated from the spleen and subjected to erythrocyte lysis through a 70-μm filter, were suspended in RPMI 1640 medium containing 5% FBS. For the assay, 1×10^6 cells in 100 μl of medium were added to the top chamber of a 6.5 mm diameter, 5-μm pore polycarbonate Transwell insert (Costar). Subsequently, cells were treated with βarr small-molecule modulators or vehicle for 30 min, followed by increasing concentrations of CCL19 suspended in 600 μL of the medium in the bottom chamber for 2 hours at 37° C. T cells migrated to the bottom of chamber were recovered, resuspended, washed, stained with a Live/Dead marker (Aqua Dead, ThermoFisher) and antibodies to cell surface markers (CD3, CD4, CD8, and CD45), and fixed with paraformaldehyde. The number of migrated T cells was measured by flow cytometric analysis with a BD LSRII Flow cytometer. […] A 1:10 dilution of input cells was similarly analyzed. Specific T cell migration was calculated by dividing the number of migrated cells by the number of input cells.

βarr2 = βarr2 (Rattus norvegicus, UniProt P29067); experiment: Dynamic light scattering (DLS) of βarr2; parameters: final βarr2 (truncated βarr2 at 394) concentration of ˜1 mg/mL; made in house; details: control βarr2 7.1 nm; Cmpd-30 60 μM
Experimental: DLS was performed on a Zetasizer Nano ZS instrument (Malvern Instruments, UK) at an excitation He—Ne laser source of 633 nm and a detector at a scattering angle of 173°. The measurements were obtained at 25° C. and defined time intervals. A low volume (100 μl) disposable sample cuvette was used (BRAND, Wertheim, Germany). The protein solutions used for all particle size measurements were at a final βarr2 (truncated βarr2 at 394) concentration of ˜1 mg/mL (20 μM) in a buffer consisting of […] (pH 7.4) and 150 mM NaCl in presence of Cmpd-30 (60 μM), IP6 (300 uM) or vehicle (DMSO). Size distributions of scattering particles of different βarr2 sample were obtained after data analysis performed on intensity and volume size distribution curves and the molecular mass and Z-average size calculated using Malvern DTS software.

ERK2-βarr2 complex = ERK2-βarr2 complex (Rattus norvegicus, UniProt P29067); experiment: Pull-down of 3×Flag-ERK2 with βarr2; assay type: binding; details: series of concentrations of compound
Experimental: Given this surprising result on the ability of Cmpd-30 to activate ERK βarr1/2-dependent but receptor independent manner, next it was determined whether βarr2 and ERK2 can physically interact in the presence of Cmpd-30 by a pull-down assay. Purified 3×Flag-ERK2 was incubated with βarr2 in the presence of a series of concentrations of Cmpd-30 or vehicle.

Sequence of βarr2 (P29067 1-394): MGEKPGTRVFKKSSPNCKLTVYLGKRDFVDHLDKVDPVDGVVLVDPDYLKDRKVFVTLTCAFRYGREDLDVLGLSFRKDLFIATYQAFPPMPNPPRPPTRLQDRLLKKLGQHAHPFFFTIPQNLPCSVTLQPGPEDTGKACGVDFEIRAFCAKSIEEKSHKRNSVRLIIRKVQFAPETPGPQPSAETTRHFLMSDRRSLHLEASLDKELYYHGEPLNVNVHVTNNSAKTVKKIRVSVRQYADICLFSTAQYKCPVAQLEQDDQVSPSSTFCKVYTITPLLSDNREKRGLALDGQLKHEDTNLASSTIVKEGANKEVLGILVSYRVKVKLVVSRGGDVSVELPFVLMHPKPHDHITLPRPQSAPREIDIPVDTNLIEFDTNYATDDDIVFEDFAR
Sequence of ERK2-βarr2 complex (P29067 whole entry): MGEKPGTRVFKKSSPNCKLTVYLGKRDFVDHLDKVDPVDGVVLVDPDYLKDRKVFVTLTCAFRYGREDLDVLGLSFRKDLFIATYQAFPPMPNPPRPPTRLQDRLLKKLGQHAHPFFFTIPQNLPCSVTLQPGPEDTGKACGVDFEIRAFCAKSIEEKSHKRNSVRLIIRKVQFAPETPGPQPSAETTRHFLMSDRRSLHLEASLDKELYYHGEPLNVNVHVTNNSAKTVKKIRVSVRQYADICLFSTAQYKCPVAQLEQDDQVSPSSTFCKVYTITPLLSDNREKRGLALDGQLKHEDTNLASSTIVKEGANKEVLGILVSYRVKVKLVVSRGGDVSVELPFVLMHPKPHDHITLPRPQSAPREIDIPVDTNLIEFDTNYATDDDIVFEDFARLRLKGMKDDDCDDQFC
Sequence of ERK2-βarr2 complex (P28482 whole entry partner): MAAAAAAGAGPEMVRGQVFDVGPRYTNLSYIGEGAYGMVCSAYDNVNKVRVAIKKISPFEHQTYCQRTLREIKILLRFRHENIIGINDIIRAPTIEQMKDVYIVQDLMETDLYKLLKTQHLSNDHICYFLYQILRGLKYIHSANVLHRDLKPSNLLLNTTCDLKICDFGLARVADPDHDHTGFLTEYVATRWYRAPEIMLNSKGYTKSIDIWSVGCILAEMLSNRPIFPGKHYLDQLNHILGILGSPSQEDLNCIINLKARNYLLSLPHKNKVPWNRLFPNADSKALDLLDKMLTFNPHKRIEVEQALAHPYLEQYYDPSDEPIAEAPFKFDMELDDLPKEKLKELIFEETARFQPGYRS

## CN(C)c1n/c(=N/Cc2ccco2)ss1 [Cmpd-30, 5-(furan-2-ylmethylimino)-N,N-dimethyl-1,2,4-dithiazol-3-amine;hydrobromide]
wild-type mouse T cells
  CCL19-induced chemotaxis of T cells: significantly impair
βarr2
  particle (hydrodynamic) diameter of βarr2: 8.2 nm
ERK2-βarr2 complex
  ERK2-βarr2 complex formation: forms a complex in vitro with βarr2 in a Cmpd-30-dependent manner
